In US11234982B2, “Methods for treating ocular surface pain” (NOVARTIS AG, priority 2019, dated 2022):

Assays:
[1] = First in human study plasma pharmacokinetics; type: in vivo
Method: This example describes a first-in-human study of compound I conducted in healthy volunteers. A total of 54 subjects were administered to study medication. Part 1 of the first in human study administered single ascending doses of 0.15%, 1.5%, 2.5% w/v (1 drop) of compound I in an eye drop.
Part 2 tested multiple ascending doses (MAD) of compound I, administering (i) 1 drop of 0.15%, 1.5%, 2.5%, 4 times daily (every 6 hours) for 7 days or (ii) 1 drop of 2.5%, 8 times daily (every 3 hours) for 7 days (supra-therapeutic dose) as eye drops.
Accumulation of compound I at steady-state was minor (˜1.7-fold) following administration of 0.15%, 1.5% or 2.5% suspension 4 times daily and also minor (˜1.3-fold) following 2.5% 8 times daily for 7 days.

[2] = tested on: postoperative ocular pain in patients undergoing photorefractive keratectomy (PRK) surgery; assay: PRK study: visual analog scale (VAS) pain assessment; type: in vivo, human
Method: The study was a proof of concept, double-masked, randomized, vehicle-controlled study of compound I administered as eye drops in addition to standard of care treatment in patients after PRK surgery. PRK surgery was performed as an outpatient procedure under topical anesthesia with removal of the corneal epithelium to expose the stroma for the laser ablation. Compound I dosing was as single eye drop of 2.5% (25 mg/ml, 0.925 mg/drop), administered four times daily (every six hours) in one eye from immediate post-op (time 0) to last dose at 72 hours.
The study consisted of 2 treatment periods using a crossover design. Patients underwent PRK surgery on 2 separate occasions (periods), one eye at a time. Patients were randomized to receive either compound 1 or vehicle following procedure 1 and the alternate following procedure 2.
Forty patients were randomized in a 1:1 ratio to two sequences: compound I during period 1, followed by vehicle in period 2, or vehicle during period 1 followed by compound I during period 2. Each patient was administered one drop four times daily for 72 hours following PRK surgery on their study eye (Day 1, Periods 1 and 2). The initial study eye was the non-dominant eye as established at screening and in agreement of the patient and the investigator. The patients returned for follow-up visits on Days 2, 3, 4 and 8 of Period 1 after surgery in the first eye, with optional daily visits to follow the patient until wound healing was complete. The second eye surgery was not performed if any complications were noticed.
Patient subjective experience of pain was recorded using VAS, a numeric assessment of pain between 0 and 100, with 0 representing no pain, and 100 representing worst imaginable pain. […] Since it was important clinically to both decrease the maximum pain as well as the overall pain that the patient experiences during the immediate postoperative period, the two periods of 6 hours and up to 12 hours postoperatively, were evaluated as primary endpoints. All evaluable VAS data was collected using an ePRO, which was an electronic device (cell phone with software application), on which patients marked their pain levels at the appropriate time points.
Rescue oral analgesics: It is not ethical to refuse pain control medication to patients postoperatively as part of a clinical trial. […] Because the use of oral rescue medication may be a potential confounder of the pain VAS evaluation, three approaches were used when analyzing pain VAS scores to account for the influence of pain meds (assuming 4 hours of rescue medication effect): (1) any recorded VAS score within 4 hours after use of rescue medication was considered missing; (2) all the recorded VAS scores was used; and (3) any recorded VAS scores within 4 hours after rescue medication use was imputed by the record taken prior to the rescue medication.

[3] = PRK study: residual compound I in bandage contact lens (BCL); type: in vivo, human
Method: Compound I was quantified in plasma using a validated LC-MS/MS method; the lower limit of quantification (LLOQ) was 0.05 ng/mL. Concentrations were expressed in ng per mL units. When feasible, bandage contact lenses (BCL) exposed to study drug were collected and analyzed for residual drug exposure after treatment (LLOQ: 5.00 ng/mL in 0.55 mL of extraction fluid, or 2.75 ng/BCL). Concentrations below the LLOQ were reported as “zero” and missing data were labeled as such.
Bandage Contact Lens (BCL) was collected from 40 patients on Day 4 of the dose administration and analyzed for compound I. Values from the three IMP non-compliant patients were excluded from BCL summary statistics, leaving 37 values evaluable, including one value from a patient without available plasma PK. The mean concentration of compound I (CV %) in 0.55 mL extraction fluid was 8500 ng/mL (73.1%), with a wide range of 284 to 22600 ng/mL. These concentrations translate to an estimated mean of 4680 ng/lens (0.55 mL×8500 ng/mL), and a range of 156 to 12400 ng/lens. The amount in BCL was very small in relation to the 0.925 mg dose of compound I administered: mean 0.51%, and range of 0.017% to 1.3% of dose.

[4] = 2.5% four times daily after PRK
[5] = 2.5% four times daily after PRK, VAS 0-100
[6] = 2.5% four times daily after PRK, VAS 0-100, ORM-adjusted, N = 30

SMILES: CC(C)c1nc2cc(O)ccc2c(=O)n1-c1ccc(C#N)cc1 [Compound I, 4-(7-hydroxy-2-isopropyl-4-oxo-4H-quinazolin-3-yl)-benzonitrile]
- Accumulation at steady-state ([1]; 0.15%, 1.5% or 2.5% suspension 4 times daily): ~1.7 fold
- Accumulation at steady-state ([1]; 2.5%, 8 times daily for 7 days): ~1.3 fold
- Increase in systemic exposure with dose ([1]; dose from 0.15% to 2.5%): less than dose-proportional increase
- Absorption into systemic circulation (plasma PK profile) ([1]; single and multiple topical ocular suspension doses 0.15%, 1.5%, 2.5%): rapid absorption
- VAS 0-12 hours post-operatively: % Diff compound I vs. Vehicle [2, 4]: −22%
- VAS at 6 hours post-operatively: % Diff compound I vs. Vehicle [2, 4]: −25%
- VAS 0-12 hours post-operatively: Diff (compound I-Vehicle) of model based means [2, 5]: −8.56
- VAS at 6 hours post-operatively: Diff (compound I-Vehicle) of model based means [2, 5]: −11.1
- Model estimated mean VAS pain severity score 0-12 hours post-operatively [2, 6]: 30.90
- Model estimated mean VAS pain severity score at 6-hours post-operatively [2, 6]: 34.63
- Mean change in VAS score one-half hour after instillation of eye drop ([2]; 6.5 hours vs 6 hours post-operative): −3.1
- Mean change in VAS score one-half hour after instillation of eye drop ([2]; 18.5 hours vs 18 hours post-operative): 2.8
- Mean change in VAS score one-half hour after instillation of eye drop ([2]; 24.5 hours vs 24 hours post-operative): 1.3
- VAS pain severity scores vs Vehicle up to 36 hours after surgery ([2]; all scheduled time points): lower for compound I than Vehicle at all scheduled time points up to and including 36 hours after surgery
- Difference between compound I and Vehicle VAS scores from 36 to 72 hours after PRK surgery ([2]; no statistically significant difference at p 0.10): only marginally different
- VAS pain severity scores vs Vehicle during the first 18 hours after surgery ([2]; p-value threshold 0.10, 6 out of the 7 time points, starting with hour 1): statistically significantly lower VAS pain severity scores
- Range of concentration of compound I in BCL extraction fluid ([3]; 0.55 mL extraction fluid, Day 4): 284 to 22600 ng/mL
- Mean concentration of compound I in BCL extraction fluid ([3]; 0.55 mL extraction fluid, Day 4, 37 values): 8500 ng/mL
- Estimated mean amount of compound I per lens ([3]; 0.55 mL×8500 ng/mL): 4680 ng/lens
- Amount in BCL in relation to the 0.925 mg dose, mean ([3]; Day 4): 0.51 % of dose
- Amount in BCL in relation to the 0.925 mg dose, range ([3]; Day 4): 0.017 % of dose
- Range of amount of compound I per lens ([3]; Day 4): 156 to 12400 ng/lens
